According to patent publication US8895587B2, “Insecticidal compounds based on arylthioacetamide derivatives” (Syngenta Participations AG, priority 2011, dated 2014):

Key:
Format in all cases: in vivo
[1] = test system: Thrips tabaci; experiment: Thrips tabaci (onion thrips) leaf disc test; conditions: foliar, 168 h, application rate 200 ppm, sunflower leaf discs, 7 days
Procedure: Sunflower leaf discs were placed on agar in a 24-well microtiter plate and sprayed with test solutions at an application rate of 200 ppm. After drying, the leaf discs were infested with a thrips population of mixed ages. After an incubation period of 7 days, samples were checked for mortality.

[2] = test system: Tetranychus urticae; experiment: Tetranychus urticae (two-spotted spider mite) leaf disc test; conditions: foliar, 192 h, application rate 200 ppm, bean leaf discs, 8 days
Source text: Bean leaf discs on agar in 24-well microtiter plates were sprayed with test solutions at an application rate of 200 ppm. After drying, the leaf discs are infested with mite populations of mixed ages. 8 days later, discs are checked for egg mortality, larval mortality, and adult mortality.

[3] = test system: Diabrotica balteata; experiment: Diabrotica balteata (corn root worm) larval test on artificial diet; conditions: 120 h, application rate 200 ppm (concentration in well 18 ppm), L2 larvae on artificial diet, 5 days
Procedure: Diabrotica balteata (Corn Root Worm): A 24-well microtiter plate (MTP) with artificial diet was treated with test solutions at an application rate of 200 ppm (concentration in well 18 ppm) by pipetting. After drying, the MTP's were infested with L2 larvae (6-10 per well). After an incubation period of 5 days, samples were checked for larval mortality and growth regulation.

[4] = test system: Myzus persicae; experiment: Myzus persicae (green peach aphid), systemic test; conditions: 144 h, application rate 12.5 ppm, roots of pea seedlings in test solution, 6 days
Source text: Myzus persicae (Green peach aphid), systemic test: Roots of pea seedlings, infested with an aphid population of mixed ages, are placed directly in the test solutions at an application rate of 12.5 ppm. 6 days after introduction, samples are checked for mortality and special effects on the plant. The following compounds gave at least 80% control of Myzus persicae: […]

[5] = test system: Plutella xylostella; experiment: Plutella xylostella (diamond back moth) larval test on artificial diet; conditions: 144 h, application rate 200 ppm (concentration in well 18 ppm), L2 larvae on artificial diet, 6 days
Procedure: 24-well microtiter plate (MTP) with artificial diet was treated with test solutions at an application rate of 200 ppm (concentration in well 18 ppm) by pipetting. After drying, the MTP's were infested with L2 larvae (7-12 per well). After an incubation period of 6 days, samples were checked for larval mortality and growth regulation.

[6] = test system: Heliothis virescens; experiment: Heliothis virescens (tobacco budworm) egg/larval test on artificial diet; conditions: 96 h, application rate 200 ppm (concentration in well 18 ppm), eggs on artificial diet, 4 days
Procedure: Eggs (0-24 h old) were placed in 24-well microtiter plate on artificial diet and treated with test solutions at an application rate of 200 ppm (concentration in well 18 ppm) by pipetting. After an incubation period of 4 days, samples were checked for egg mortality, larval mortality, and growth regulation.

[7] = test system: Spodoptera littoralis; experiment: Spodoptera littoralis (Egyptian cotton leafworm) leaf disc test; conditions: foliar, 72 h, application rate 200 ppm, cotton leaf discs, L1 larvae, mortality, feeding behavior, growth regulation 3 DAT
Source text: Spodoptera littoralis (Egyptian Cotton Leafworm): Cotton leaf discs were placed on agar in a 24-well microtiter plate and sprayed with test solutions at an application rate of 200 ppm. After drying, the leaf discs were infested with 5 L1 larvae. The samples were checked for mortality, feeding behavior, and growth regulation 3 days after treatment (DAT).

O=C(C[S+]([O-])c1ccc(C2=NOC(c3cc(Cl)cc(Cl)c3)(C(F)(F)F)C2)cc1Br)NCC(F)(F)F (stereo not drawn) [Compound A52, 2-{2-Bromo-4-[5-(3,5-dichloro-phenyl)-5-trifluoromethyl-4,5-dihydro-isoxazol-3-yl]-benzenesulfinyl}-N-(2,2,2-trifluoro-ethyl)-acetamide]
≥ 80%: pest or weed control at 200 ppm [1] | pest or weed control at 200 ppm [2] | pest or weed control at 200 ppm [3] | pest or weed control at 12.5 ppm [4] | pest or weed control at 200 ppm [5] | pest or weed control at 200 ppm [6] | pest or weed control at 200 ppm [7]

O=C(CSc1ccc(C2=NO[C@@](c3cc(Cl)cc(Cl)c3)(C(F)(F)F)C2)c2ccccc12)NCC(F)(F)F [Compound G2, 2-[[4-[5-(S)-(3,5-dichlorophenyl)-5-(trifluoromethyl)-4H-isoxazol-3-yl]-1-naphthyl]sulfanyl]-N-(2,2,2-trifluoroethyl)acetamide]
≥ 80%: pest or weed control at 200 ppm [1] | pest or weed control at 200 ppm [2] | pest or weed control at 200 ppm [3] | pest or weed control at 12.5 ppm [4] | pest or weed control at 200 ppm [5] | pest or weed control at 200 ppm [6] | pest or weed control at 200 ppm [7]

O=C(CSc1ccc(C2=NO[C@@](c3cc(Cl)c(Cl)c(Cl)c3)(C(F)(F)F)C2)cc1Cl)NC1CC1 [Compound D4, 2-[2-chloro-4-[(5S)-5-(3,4,5-trichlorophenyl)-5-(trifluoromethyl)-4H-isoxazol-3-yl]phenyl]sulfanyl-N-cyclopropyl-acetamide]
≥ 80%: pest or weed control at 200 ppm [1] | pest or weed control at 200 ppm [2] | pest or weed control at 200 ppm [3] | pest or weed control at 12.5 ppm [4] | pest or weed control at 200 ppm [5] | pest or weed control at 200 ppm [6] | pest or weed control at 200 ppm [7]

N#CC1(NC(=O)C[S+]([O-])c2ccc(C3=NOC(c4cc(Cl)cc(Cl)c4)(C(F)(F)F)C3)cc2Cl)CC1 (stereo not drawn) [Compound A56, 2-[2-chloro-4-[5-(3,5-dichlorophenyl)-5-(trifluoromethyl)-4H-isoxazol-3-yl]phenyl]sulfinyl-N-(1-cyanocyclopropyl)acetamide]
≥ 80%: pest or weed control at 200 ppm [1] | pest or weed control at 200 ppm [2] | pest or weed control at 200 ppm [3] | pest or weed control at 12.5 ppm [4] | pest or weed control at 200 ppm [5] | pest or weed control at 200 ppm [6] | pest or weed control at 200 ppm [7]

O=C(CS(=O)(=O)c1ccc(C2=NCC(c3cc(Cl)cc(Cl)c3)(C(F)(F)F)C2)cc1Cl)NCC(F)(F)F (stereo not drawn) [Compound B3, 2-{2-chloro-4-[4-(3,5-Dichloro-phenyl)-4-trifluoromethyl-4,5-dihydro-3H-pyrrol-2-yl]-benzenesulfonyl}-N-(2,2,2-trifluoro-ethyl)-acetamide]
≥ 80%: pest or weed control at 200 ppm [1] | pest or weed control at 200 ppm [2] | pest or weed control at 200 ppm [3] | pest or weed control at 12.5 ppm [4] | pest or weed control at 200 ppm [5] | pest or weed control at 200 ppm [6] | pest or weed control at 200 ppm [7]

N#CC1(NC(=O)CSc2ccc(C3=NOC(c4cc(Cl)cc(Cl)c4)(C(F)(F)F)C3)cc2Cl)CC1 (stereo not drawn) [Compound A60, 2-[2-chloro-4-[5-(3,5-dichlorophenyl)-5-(trifluoromethyl)-4H-isoxazol-3-yl]phenyl]sulfanyl-N-(1-cyanocyclopropyl)acetamide]
≥ 80%: pest or weed control at 200 ppm [1] | pest or weed control at 200 ppm [2] | pest or weed control at 200 ppm [3] | pest or weed control at 12.5 ppm [4] | pest or weed control at 200 ppm [5] | pest or weed control at 200 ppm [6] | pest or weed control at 200 ppm [7]

O=C(CSc1ccc(C2=NCC(c3cc(Cl)cc(Cl)c3)(C(F)(F)F)C2)cc1Cl)NCC(F)(F)F (stereo not drawn) [Compound B1, 2-{2-Chloro-4-[4-(3,5-dichloro-phenyl)-4-trifluoromethyl-4,5-dihydro-3H-pyrrol-2-yl]-phenylsulfanyl}-N-(2,2,2-trifluoro-ethyl)-acetamide]
≥ 80%: pest or weed control at 200 ppm [1] | pest or weed control at 200 ppm [2] | pest or weed control at 200 ppm [3] | pest or weed control at 12.5 ppm [4] | pest or weed control at 200 ppm [5] | pest or weed control at 200 ppm [6] | pest or weed control at 200 ppm [7]

O=C(CSc1ccc(C2=NOC(c3cc(Cl)cc(Cl)c3)(C(F)(F)F)C2)cc1Br)NCC(F)(F)F (stereo not drawn) [Compound A29, 2-{2-bromo-4-[5-(3,5-dichloro-phenyl)-5-trifluoromethyl-4,5-dihydro-isoxazol-3-yl]-phenylsulfanyl}-N-(2,2,2-trifluoro-ethyl)-acetamide]
≥ 80%: pest or weed control at 200 ppm [1] | pest or weed control at 200 ppm [2] | pest or weed control at 200 ppm [3] | pest or weed control at 12.5 ppm [4] | pest or weed control at 200 ppm [5] | pest or weed control at 200 ppm [6] | pest or weed control at 200 ppm [7]

O=C(CSc1ccc(C2=NO[C@@](c3cc(Cl)cc(Cl)c3)(C(F)(F)F)C2)cc1F)NCC(F)(F)F [Compound C63, 2-[4-[(5S)-5-(3,5-dichlorophenyl)-5-(trifluoromethyl)-4H-isoxazol-3-yl]-2-fluoro-phenyl]sulfanyl-N-(2,2,2-trifluoroethyl)acetamide]
≥ 80%: pest or weed control at 200 ppm [1] | pest or weed control at 200 ppm [2] | pest or weed control at 200 ppm [3] | pest or weed control at 12.5 ppm [4] | pest or weed control at 200 ppm [5] | pest or weed control at 200 ppm [6] | pest or weed control at 200 ppm [7]

O=C(CSc1ccc(C2=NO[C@@](c3cc(Cl)c(Cl)c(Cl)c3)(C(F)(F)F)C2)cc1Cl)NCC(F)(F)F [Compound D1, 2-[2-chloro-4-[(5S)-5-(3,4,5-trichlorophenyl)-5-(trifluoromethyl)-4H-isoxazol-3-yl]phenyl]sulfanyl-N-(2,2,2-trifluoroethyl)acetamide]
≥ 80%: pest or weed control at 200 ppm [1] | pest or weed control at 200 ppm [2] | pest or weed control at 200 ppm [3] | pest or weed control at 12.5 ppm [4] | pest or weed control at 200 ppm [5] | pest or weed control at 200 ppm [6] | pest or weed control at 200 ppm [7]

O=C(CSc1ccc(C2=NOC(c3cc(Cl)cc(Cl)c3)(C(F)(F)F)C2)c2ccccc12)NCC(F)(F)F (stereo not drawn) [Compound G1, 2-[[4-[5-(3,5-dichlorophenyl)-5-(trifluoromethyl)-4H-isoxazol-3-yl]-1-naphthyl]sulfanyl]-N-(2,2,2-trifluoroethyl)acetamide]
≥ 80%: pest or weed control at 200 ppm [1] | pest or weed control at 200 ppm [2] | pest or weed control at 200 ppm [3] | pest or weed control at 12.5 ppm [4] | pest or weed control at 200 ppm [5] | pest or weed control at 200 ppm [6] | pest or weed control at 200 ppm [7]

O=C(C[S+]([O-])c1ccc(C2=NO[C@@](c3cc(Cl)c(Cl)c(Cl)c3)(C(F)(F)F)C2)cc1Cl)NCC(F)(F)F (stereo partly drawn) [Compound D2, 2-[2-chloro-4-[(5S)-5-(3,4,5-trichlorophenyl)-5-(trifluoromethyl)-4H-isoxazol-3-yl]phenyl]sulfinyl-N-(2,2,2-trifluoroethyl)acetamide]
≥ 80%: pest or weed control at 200 ppm [1] | pest or weed control at 200 ppm [2] | pest or weed control at 200 ppm [3] | pest or weed control at 12.5 ppm [4] | pest or weed control at 200 ppm [5] | pest or weed control at 200 ppm [6] | pest or weed control at 200 ppm [7]
